Measured values as given in paper PMC6079084, “Capacity for instantaneous catabolism of preferred and non-preferred carbon sources in Escherichia coli and Bacillus subtilis” (Scientific Reports, 2018).

How the values were obtained:
PfkA = target: T1, PfkA (Bacillus subtilis, UniProt O34529); assay: coupled spectrophotometric assay, NADH at […] nm; type: biochemical
T1 construct: full-length, N-terminal His6-Gly3 tag (from primer), recombinant in E. coli BW25113, pTrc99KK, Ni-NTA

purified protein = substrate: CC(=O)C(=O)O; assay: purified protein; type: biochemical, Bacillus subtilis; details: 1 mM ATP, 0.05 mM acetyl-CoA, 15 mM KHCO3, 7 mM MgSO4, 135 mM TEA pH 8, room temperature, pyruvate 0.04-5.0 mM

T1 sequence (O34529 2-319): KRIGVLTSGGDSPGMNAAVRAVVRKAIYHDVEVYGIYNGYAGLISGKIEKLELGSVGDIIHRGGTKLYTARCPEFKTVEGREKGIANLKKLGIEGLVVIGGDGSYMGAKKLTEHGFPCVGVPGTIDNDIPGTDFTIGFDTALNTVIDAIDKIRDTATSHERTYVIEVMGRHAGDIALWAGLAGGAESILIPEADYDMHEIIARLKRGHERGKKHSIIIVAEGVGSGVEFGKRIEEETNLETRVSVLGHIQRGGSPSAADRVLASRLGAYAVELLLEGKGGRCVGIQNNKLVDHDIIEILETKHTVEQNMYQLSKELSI

Ki (PfkA) | Molecule | Km (purified protein)
40 µM | C=C(OP(=O)(O)O)C(=O)O [PEP, phosphoenolpyruvate] | –
– | PycA (Bacillus subtilis subsp. subtilis str. 168) (protein, full-length, N-terminal His6-Gly3 tag (from primer), recombinant in E. coli BW25113, pTrc99KK, Ni-NTA) SQQSIQKVLVANRGEIAIRIFRACTELNIRTVAVYSKEDSGSYHRYKADEAYLVGEGKKPIDAYLDIEGIIDIAKRNKVDAIHPGYGFLSENIHFARRCEEEGIVFIGPKSEHLDMFGDKVKAREQAEKAGIPVIPGSDGPAETLEAVEQFGQANGYPIIIKASLGGGGRGMRIVRSESEVKEAYERAKSEAKAAFGNDEVYVEKLIENPKHIEVQVIGDKQGNVVHLFERDCSVQRRHQKVIEVAPSVSLSPELRDQICEAAVALAKNVNYINAGTVEFLVANNEFYFIEVNPRVQVEHTITEMITGVDIVQTQILVAQGHSLHSKKVNIPEQKDIFTIGYAIQSRVTTEDPQNDFMPDTGKIMAYRSGGGFGVRLDTGNSFQGAVITPYYDSLLVKLSTWALTFEQAAAKMVRNLQEFRIRGIKTNIPFLENVAKHEKFLTGQYDTSFIDTTPELFNFPKQKDRGTKMLTYIGNVTVNGFPGIGKKEKPAFDKPLGVKVDVDQQPARGTKQILDEKGAEGLANWVKEQKSVLLTDTTFRDAHQSLLATRIRSHDLKKIANPTAALWPELFSMEMWGGATFDVAYRFLKEDPWKRLEDLRKEVPNTLFQMLLRSSNAVGYTNYPDNVIKEFVKQSAQSGIDVFRIFDSLNWVKGMTLAIDAVRDTGKVAEAAICYTGDILDKNRTKYDLAYYTSMAKELEAAGAHILGIKDMAGLLKPQAAYELVSALKETIDIPVHLHTHDTSGNGIYMYAKAVEAGVDIIDVAVSSMAGLTSQPSASGFYHAMEGNDRRPEMNVQGVELLSQYWESVRKYYSEFESGMKSPHTEIYEHEMPGGQYSNLQQQAKGVGLGDRWNEVKEMYRRVNDMFGDIVKVTPSSKVVGDMALYMVQNNLTEKDVYEKGESLDFPDSVVELFKGNIGQPHGGFPEKLQKLILKGQEPITVRPGELLEPVSFEAIKQEFKEQHNLEISDQDAVAYALYPKVFTDYVKTTESYGDISVLDTPTFFYGMTLGEEIEVEIERGKTLIVKLISIGEPQPDATRVVYFELNGQPREVVIKDESIKSSVQERLKADRTNPSHIAASMPGTVIKVLAEAGTKVNKGDHLMINEAMKMETTVQAPFSGTIKQVHVKNGEPIQTGDLLLEIEKA | 100 µM
